# Results published in the supplement of paper PMC10307832.
# Columns and labels:
# Test in all cases: relative viability (nuclei count vs DMSO), 5 days (fraction); higher = more cells survive
# IDH-C35 + Lapatinib = compound: Cc1ccccc1C(C(=O)NC1CCCCC1)N(C(=O)Cn1ccnc1C)c1cccc(F)c1 [IDH-C35] + CS(=O)(=O)CCNCc1ccc(-c2ccc3ncnc(Nc4ccc(OCc5cccc(F)c5)c(Cl)c4)c3c2)o1 [Lapatinib] (partner 2 µM)
# Summary of the method: (§1)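 Medians of duplicate plates are given as relative viability. That measure is the nuclei count in treated wells divided by the count in vehicle wells. Counts were taken on 4× images of lung cancer cell lines in 1536-well plates, 5 days after pin-tool dosing the day after seeding with one drug alone or a fixed anchor-drug dose plus five library-drug doses (not always all listed) in √10 steps.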
# [1] = compound: CC1=C(C(=NN1)C)CC2=C(C3=C(S2)N(C(=O)N(C3=O)C)CC(C)C)C(=O)N4C[C@@H](CO4)O + N=C(N)NC(=N)NCCc1ccccc1 [Phenformin] (partner 250 µM)
# Summary of the method: as §1
# [2] = compound: CC1=C(C(=NN1)C)CC2=C(C3=C(S2)N(C(=O)N(C3=O)C)CC(C)C)C(=O)N4C[C@@H](CO4)O + O=C(CCCCCCC(=O)Nc1ccccc1)NO [Vorinostat] (partner 1 µM)
# Summary of the method: as §1
# IDH-C35 + Vorinostat = compound: Cc1ccccc1C(C(=O)NC1CCCCC1)N(C(=O)Cn1ccnc1C)c1cccc(F)c1 [IDH-C35] + O=C(CCCCCCC(=O)Nc1ccccc1)NO [Vorinostat] (partner 1 µM)
# Summary of the method: as §1
Cell Line,relative viability (IDH-C35 + Lapatinib; first compound 0.08 µM),relative viability (IDH-C35 + Lapatinib; first compound 0.253 µM),relative viability (IDH-C35 + Lapatinib; first compound 0.8 µM),relative viability (IDH-C35 + Lapatinib; first compound 2.53 µM),relative viability (IDH-C35 + Lapatinib; first compound 8 µM),relative viability ([1]; first compound 0.0025 µM),relative viability ([1]; first compound 0.007906 µM),relative viability ([1]; first compound 0.025 µM),relative viability ([1]; first compound 0.07906 µM),relative viability ([1]; first compound 0.25 µM),relative viability ([2]; first compound 0.0025 µM),relative viability ([2]; first compound 0.007906 µM),relative viability ([2]; first compound 0.025 µM),relative viability ([2]; first compound 0.07906 µM),relative viability ([2]; first compound 0.25 µM),relative viability (IDH-C35 + Vorinostat; first compound 0.08 µM),relative viability (IDH-C35 + Vorinostat; first compound 0.253 µM),relative viability (IDH-C35 + Vorinostat; first compound 0.8 µM),relative viability (IDH-C35 + Vorinostat; first compound 2.53 µM),relative viability (IDH-C35 + Vorinostat; first compound 8 µM)
SK-LU-1,0.918,0.856,0.871,0.976,0.82,0.338,0.234,0.191,0.202,0.223,0.744,0.528,0.571,0.611,0.611,0.733,0.752,0.892,0.831,0.778
NCI-H1650,0.785,0.835,0.692,0.285,0.664,0.536,0.473,0.457,0.506,0.46,0.529,0.583,0.49,0.713,0.568,0.685,0.491,0.569,0.588,0.84
NCI-H2009,1,0.928,0.908,0.639,0.729,0.487,0.484,0.455,0.557,0.503,0.703,0.785,0.735,0.756,0.701,0.762,0.688,0.758,0.69,0.681
LOU-NH91,0.798,0.813,0.776,0.749,0.767,0.763,0.752,0.731,0.844,0.733,1.03,0.875,0.939,1.07,1,0.916,0.946,0.894,0.8,0.888
NCI-H2405,1.1,1.2,1.09,,0.957,0.348,0.286,,0.277,0.268,1.13,1.07,0.849,0.96,0.888,1.08,0.956,0.968,1.24,1.02
LCLC-97TM1,0.672,0.825,1.1,,0.869,0.483,0.432,0.429,0.477,0.51,0.984,1.03,0.575,0.72,0.776,0.706,0.729,0.67,,0.436
NCI-H596,1.01,1.04,1.11,1.16,1.06,0.803,0.764,0.73,0.809,1.05,0.783,0.652,0.625,0.697,0.479,0.733,0.584,0.721,0.725,0.604
NCI-H727,0.874,0.779,0.801,0.728,0.947,0.424,0.504,0.486,0.489,0.372,1.16,1.25,1.05,1.05,1.13,1.2,1.08,1.02,1.17,1.16
H3255,0.246,0.244,0.283,0.304,0.414,0.338,0.368,0.364,0.389,0.39,0.969,0.716,0.821,0.844,0.854,0.8,0.925,0.875,0.73,0.868
SK-MES-1,0.435,0.49,0.446,0.481,0.413,0.701,0.671,0.629,0.686,0.704,1.19,1.23,1.1,1.05,1.16,1.18,1.08,1.04,1.2,1.02
NCI-H1437,0.942,0.807,0.776,0.904,0.812,0.318,0.313,0.301,0.297,0.306,0.796,0.882,0.833,0.868,0.906,0.931,0.851,0.869,0.843,0.858
LU99A,1.08,0.909,0.938,0.984,1.12,0.84,1.06,0.798,0.898,0.927,0.462,0.526,0.505,0.46,0.575,0.533,0.422,0.483,0.481,0.505
HCC-827,0.183,0.211,0.173,0.218,0.228,0.379,0.408,0.425,0.407,0.399,0.805,0.91,0.837,0.843,1.01,0.731,0.85,0.811,0.789,0.868
LK-2,0.836,1.01,0.758,0.735,0.932,0.304,0.321,0.195,0.187,0.263,0.342,0.272,0.208,0.266,0.301,0.352,0.273,0.216,0.34,0.165
HCC-366,1.12,1.03,1.04,1.08,1.12,0.622,0.574,0.669,0.606,0.693,0.438,0.365,0.348,0.399,0.447,0.49,0.351,0.321,0.371,0.404
BEN,0.796,0.805,0.724,0.718,0.865,0.223,0.166,0.221,0.18,0.206,0.553,0.493,0.593,0.527,0.536,0.576,0.608,0.618,0.568,0.593
NCI-H23,0.988,1.15,1.23,1.06,0.97,0.794,0.858,0.839,0.804,0.774,0.76,0.627,0.638,0.587,0.737,0.609,0.582,0.578,0.641,0.636
NCI-H1395,1,0.928,1.08,1.09,0.891,0.336,0.316,0.298,0.314,0.312,0.75,0.663,0.508,0.756,0.683,0.773,0.694,0.707,0.927,0.766
201T,1.05,1.04,1.02,0.973,1.01,0.468,0.383,0.426,0.472,0.426,0.979,1.02,0.951,0.952,0.973,1,0.942,0.946,0.641,0.951
NCI-H2170,0.254,0.259,0.28,0.274,0.272,0.377,0.384,0.432,0.378,0.378,0.82,0.792,0.779,0.749,0.864,0.796,0.809,0.804,0.844,0.85
NCI-H460,1.19,1.11,0.978,0.888,0.963,0.526,0.586,0.491,0.553,0.515,0.859,0.689,0.634,0.723,0.857,0.723,0.693,0.676,0.725,0.649
NCI-H661,0.634,0.447,0.362,0.519,0.351,0.286,0.304,0.27,0.22,0.277,0.787,0.863,0.746,0.805,0.834,0.753,0.816,0.778,0.756,0.721
HCC-15,0.892,0.776,0.931,0.776,0.781,0.486,0.49,0.46,0.482,0.518,1.04,0.829,0.839,0.875,0.81,0.796,0.857,0.877,,0.707
ABC-1,1.3,1,1.03,1.16,1.06,0.18,0.174,0.173,0.186,0.214,1.08,1.27,,0.904,0.864,1.12,1.07,0.941,1.23,1.3
EPLC-272H,1.21,1.04,0.912,,0.802,0.362,0.272,0.281,0.298,0.361,0.454,0.447,0.61,0.438,0.351,0.314,0.406,0.515,0.494,0.403
